Laboratory results from PMC12616515, “Thermostable Bacterial Esterases From Lipase Family 1.5 Degrade Compostable Polyesters PBAT and PBSA” (MicrobiologyOpen, 2025).

Assays:
Cl_EstA = biological target: T1, Cl_EstA (Clostridium botulinum, UniProt A5I055)
T1 construct: gene lipA

Dt_Est = biological target: T2, Dt_Est (Desulfurispora thermophila, UniProt Z9TUI6NBX6); assay: pNP release, absorbance […] nm; assay type: biochemical
T2 sequence (Z9TUI6NBX6 32-423): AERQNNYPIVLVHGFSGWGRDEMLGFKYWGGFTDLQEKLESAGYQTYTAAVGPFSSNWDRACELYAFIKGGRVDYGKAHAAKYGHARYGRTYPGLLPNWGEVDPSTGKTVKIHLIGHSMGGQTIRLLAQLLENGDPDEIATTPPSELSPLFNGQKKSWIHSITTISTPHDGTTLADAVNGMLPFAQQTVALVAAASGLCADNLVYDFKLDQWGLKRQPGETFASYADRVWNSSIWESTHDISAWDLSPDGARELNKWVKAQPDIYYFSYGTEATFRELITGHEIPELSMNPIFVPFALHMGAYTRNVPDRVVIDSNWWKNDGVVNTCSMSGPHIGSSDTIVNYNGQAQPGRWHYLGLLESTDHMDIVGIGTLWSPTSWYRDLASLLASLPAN

Tl_Est64 = biological target: T3, Tl_Est64 (Thermosyntropha lipolytica, UniProt A0A1M5LUW5); assay: pNP release, absorbance […] nm; assay type: biochemical
T3 construct: gene SAMN02745221_00755
T3 sequence (A0A1M5LUW5 29-416): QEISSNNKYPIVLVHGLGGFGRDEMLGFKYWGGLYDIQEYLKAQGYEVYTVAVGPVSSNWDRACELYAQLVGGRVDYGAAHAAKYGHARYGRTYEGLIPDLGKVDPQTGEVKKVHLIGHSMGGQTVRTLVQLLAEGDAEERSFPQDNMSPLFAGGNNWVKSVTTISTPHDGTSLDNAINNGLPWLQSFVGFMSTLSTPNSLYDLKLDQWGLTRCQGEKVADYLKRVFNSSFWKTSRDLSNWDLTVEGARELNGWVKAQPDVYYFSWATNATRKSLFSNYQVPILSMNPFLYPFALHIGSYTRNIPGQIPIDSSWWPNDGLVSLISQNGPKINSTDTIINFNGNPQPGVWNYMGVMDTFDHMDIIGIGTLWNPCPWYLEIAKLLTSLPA

T1 sequence (A5I055 1-480): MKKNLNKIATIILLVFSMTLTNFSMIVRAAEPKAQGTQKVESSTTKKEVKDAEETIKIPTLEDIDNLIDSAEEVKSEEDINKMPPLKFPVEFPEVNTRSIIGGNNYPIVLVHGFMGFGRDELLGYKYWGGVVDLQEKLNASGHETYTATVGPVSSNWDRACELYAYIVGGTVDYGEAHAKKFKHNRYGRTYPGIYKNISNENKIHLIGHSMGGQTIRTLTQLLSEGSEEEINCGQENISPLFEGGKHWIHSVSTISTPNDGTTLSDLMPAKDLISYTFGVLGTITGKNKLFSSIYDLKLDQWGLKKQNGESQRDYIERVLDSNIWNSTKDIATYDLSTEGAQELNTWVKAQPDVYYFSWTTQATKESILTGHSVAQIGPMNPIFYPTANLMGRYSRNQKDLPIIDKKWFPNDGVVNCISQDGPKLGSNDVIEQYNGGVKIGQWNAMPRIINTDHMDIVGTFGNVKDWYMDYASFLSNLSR

SMILES	pNP release, absorbance 405 nm (Tl_Est64)	further results
CC(=O)Oc1ccc([N+](=O)[O-])cc1 [pNP acetate]		pNP release, absorbance 405 nm (Cl_EstA): except Cl_EstA, which had the best activity with pNP acetate
CCCCCCCC(=O)Oc1ccc([N+](=O)[O-])cc1 [pNP octanoate]		pNP release, absorbance 405 nm (Dt_Est): Dt_Est showed the highest activity with pNP octanoate
CCCC(=O)Oc1ccc([N+](=O)[O-])cc1 [pNP butyrate]	Tl_Est64 showed the highest overall activity with the substrates pNP butyrate and pNP valerate	
CCCCC(=O)Oc1ccc([N+](=O)[O-])cc1 [pNP valerate]	Tl_Est64 showed the highest overall activity with the substrates pNP butyrate and pNP valerate	
